Results from patent US12577281B2, “Mitochondrial-derived peptides and analogs thereof for use as a therapy for age-related diseases including cancer” (University of Southern California, priority 2020, dated 2026).
Where a SMILES comes first, the peptide text is derived from it.

Assay: Safety of NOSH in mice
Assay type: in vivo
Protocol: FIG. 1. NOSH (ND-One short open reading frames (sORF) in Humans) is safe in mice. NOSH has a sequence of […] (SEQ ID NO:215).
NOSH was safe in mice. Further, NOSH increased autophagy. The level of autophagy-related protein microtubule-associated protein 1 light chain 3 (LC3) was increased in PC3 cells treated with 5 μM NOSH for 6 h. FIG. 2.

With `CC[C@H](C)[C@H](NC(=O)[C@H](CC(C)C)NC(=O)[C@@H](NC(=O)[C@H](CC(C)C)NC(=O)[C@H](CCSC)NC(=O)[C@H](CC(C)C)NC(=O)[C@H](CO)NC(=O)[C@H](CC(C)C)NC(=O)[C@H](CO)NC(=O)[C@H](CCCNC(=N)N)NC(=O)CNC(=O)[C@H](CO)NC(=O)[C@H](CCCNC(=N)N)NC(=O)[C@H](CCCNC(=N)N)NC(=O)[C@@H](NC(=O)[C@H](C)NC(=O)[C@H](CC(C)C)NC(=O)[C@H](CC(C)C)NC(=O)[C@H](CC(C)C)NC(=O)CNC(=O)[C@H](Cc1ccccc1)NC(=O)[C@H](CC(C)C)NC(=O)[C@H](CCCNC(=N)N)NC(=O)[C@@H](N)CCSC)C(C)C)[C@@H](C)O)C(=O)N[C@@H](CCCNC(=N)N)C(=O)NCC(=O)N[C@@H](CC(C)C)C(=O)N[C@@H](CO)C(=O)N[C@@H](CCCCN)C(=O)N[C@@H](CCCNC(=N)N)C(=O)N[C@@H](CC(C)C)C(=O)NCC(=O)O` [NOSH] (H-MRLFGLLLAVRRSGRSLSLMLTLIRGLSKRLG-OH) the safety in mice was “safe”.
